Where a name gives a salt, the structure may show the parent alone.
Assays:
[1] = test system: guinea pig stomach muscle strip; details: cited from earlier work
gastric emptying [2] = details: cited from earlier work
gastric emptying [3] = details: in vivo; cited from earlier work
antroduodenal motility = details: coadministered with cisapride; dogs; cited from earlier work
GI transit [4] = details: man; cited from earlier work
GI transit [5] = details: man; cited from earlier work; remark: listed apart in the source
[6] = test system: gastric emptying of solid meals; experiment: Canine gastric emptying in vivo model, alpha-2 adrenergic model of gastroparesis, solid meal; set-up: species or system dog; details: % emptied, treated, emptying delayed by alpha-2 adrenergic agonist
5-HT3 receptors = biological target: T1, 5-HT3 receptors (Mus musculus, UniProt P23979); experiment: Serotonin 5-HT3 receptor binding assay, [3H]GR65630, NG108-15 membranes; details: for Ki: Ki (5-HT3 receptors), [3H]GR65630 1 nM, apparent Ki calculated from IC50
T1 construct: endogenous in cells; host or cells: NG108-15 neuroblastoma cells (membranes)
T1 sequence (P23979 24-489): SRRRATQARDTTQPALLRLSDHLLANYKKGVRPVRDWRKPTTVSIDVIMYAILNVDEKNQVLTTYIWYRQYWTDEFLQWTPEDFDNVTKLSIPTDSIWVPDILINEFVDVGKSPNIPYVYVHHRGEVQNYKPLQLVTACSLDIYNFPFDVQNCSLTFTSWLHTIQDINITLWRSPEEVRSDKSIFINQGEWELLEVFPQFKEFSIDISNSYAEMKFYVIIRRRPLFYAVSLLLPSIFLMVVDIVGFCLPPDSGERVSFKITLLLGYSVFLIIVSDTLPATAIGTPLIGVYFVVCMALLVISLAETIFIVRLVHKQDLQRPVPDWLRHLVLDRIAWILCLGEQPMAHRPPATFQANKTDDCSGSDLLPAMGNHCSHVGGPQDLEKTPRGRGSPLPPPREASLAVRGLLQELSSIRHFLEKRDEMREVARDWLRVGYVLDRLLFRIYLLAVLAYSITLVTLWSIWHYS
Procedure: Preparation of Membrane Suspensions
NG108-15 neuroblastoma cells were cultured at 37° C. in closed culture flasks for 3-4 days or to confluence (6-16×10^6 cells/flask). […] The cells were centrifuged at 900×g for five minutes at 4° C. At this point the cells could be frozen. The (frozen or freshly prepared) pellets from each flask were suspended in 4 ml buffer and homogenized a second time as above. The resulting supernatant was used for radioligand binding studies.
To each well of a microtiter plate were added 100 μl tissue, 50 μl [^3 H]GR65630 (4 nM stock, SA=64 Ci/mmol from Dupont/NEN) and 50 μl drugs. Nonspecific binding was measured in the presence of 10 μM zacopride. Reactions were incubated for 45-60 minutes at 25° C. followed by filtration under reduced pressure through GF/B-type filters with the aid of either a Brandel or Skatron macro harvester. The filters were washed with ice-cold buffer (a 6 sec wash time on the Skatron harvester, using filters presoaked with polyethylenimine) and specific binding was measured by either a Packard CA 1900 or an LKB Betaplate counter. […] IC50 values were determined for test drugs, and Ki values calculated from the equation: […]

[7] = test system: transit of a charcoal meal; details: mouse, in vivo; cited from earlier work
5-HT4 receptors = details: cited from earlier work
[8] = test system: peristalsis in the GI tract; details: various animal models; cited from earlier work
[9] = test system: guinea pig stomach strips; details: cited from earlier work
[10] = test system: 5-HT3-mediated Bezold Jarisch reflex; details: in vivo; cited from earlier work
5-HT4 receptor subtype = details: mouse embryonic colliculi neurons; cited from earlier work

CN1[C@@H]2CC[C@H]1C[C@@H](OC(=O)c1c[nH]c3ccccc13)C2 [ICS-205930]
guinea pig stomach muscle strip contraction in vitro [1]: enhanced guinea pig stomach muscle strip contraction in vitro
gastric emptying rates in vivo (gastric emptying [2]): increases in gastric emptying rates in vivo
gastric emptying (gastric emptying [3]): enhanced gastric emptying
effect on the responses to cisapride (antroduodenal motility): did not affect the responses to cisapride

Cc1nccn1CC1CCc2c(c3ccccc3n2C)C1=O (stereo not shown) [GR38032]
small intestinal transit times or mouth-to-cecum transit times (GI transit [4]): did not alter small intestinal transit times or mouth-to-cecumtransit times
GI transit (GI transit [5]): failed to accelerate GI transit
colonic transit (GI transit [5]): slowed colonic transit in man

CN1[C@@H]2CC[C@H]1C[C@@H](OC(=O)c1cc(Cl)cc(Cl)c1)C2 [MDL 72222]
guinea pig stomach muscle strip contraction in vitro [1]: enhanced guinea pig stomach muscle strip contraction in vitro
gastric emptying rates in vivo (gastric emptying [2]): increases in gastric emptying rates in vivo

COc1cc(N)c(Cl)cc1C(=O)NCC1C2CC3CC1CN(C3)C2 (stereo not drawn) [Example 4, Exo-4-amino-N-(1-azacyclo[3.3.1.1^3,7]decan-4-ylmethyl)-5-chloro-2-methoxybenzamide, hydrochloride]
Canine Solid Gastric Emptying (% Control to Treat) ([6]; control 20.2%, at 0.3 mg/kg IV): 35.1%
Ki (5-HT3 receptors; NG108-15 membranes, 25° C.): 0.0257 µM

Cc1nccn1CC1CCc2c(c3ccccc3n2C)C1=O.Cl.O.O (stereo not shown) [SN-307]
transit of a charcoal meal in mice [7]: enhanced transit of a charcoal meal in mice

NCCc1c[nH]c2ccc(O)cc12 [Serotonin, 5-hydroxytryptamine]
receptor mediating the peristaltic reflex (5-HT4 receptors): mediated through agonism at 5-HT4 receptors
peristalsis in the GI tract [8]: promote peristalsis in the GI tract

COc1cc(N)c(Cl)cc1C(=O)NCC1C2CC3CC1CN(C3)C2 (stereo not drawn) [Example 2, Endo-4-amino-N-(1-azacyclo[3.3.1.1^3,7]decan-4-ylmethyl)-5-chloro-2-methoxybenzamide hydrochloride]
Ki (5-HT3 receptors; NG108-15 membranes, 25° C.): 0.144 µM

Cc1nc[nH]c1CCC(=O)c1cn(C)c2ccccc12 [[^3 H]GR65630]
Kd (5-HT3 receptors): 0.0015 µM
Bmax (5-HT3 receptors; radioligand, NG108-15 membranes, 25° C.): 195 fmole/mg protein

CCN(CC)CCNC(=O)c1cc(Cl)c(N)cc1OC [metoclopramide]
electrical-field stimulated contractions in guinea pig stomach strips [9]: enhanced electrical-field stimulated contractions
guinea pig stomach muscle strip contraction in vitro [1]: enhanced guinea pig stomach muscle strip contraction in vitro
gastric emptying rates in vivo (gastric emptying [2]): increases in gastric emptying rates in vivo
5-HT3-mediated Bezold Jarisch reflex [10]: blocks the 5-HT3 -mediated Bezold Jarisch reflex

COc1cc(N)c(Cl)cc1C(=O)NC1CCN(CCCOc2ccc(F)cc2)CC1OC (stereo not shown) [Cisapride]
Canine Solid Gastric Emptying (% Control to Treat) ([6]; control 23.2%, at 0.3 mg/kg IG): 36.6%
correlation of prokinetic activity with 5-HT4 agonist activity (5-HT4 receptor subtype): correlate with agonist activity at a novel 5-HT4 receptor subtype

COc1cc(N)c(Cl)cc1C(=O)NC1CCN2CCCC1C2 (stereo not shown) [BRL-24924]
correlation of prokinetic activity with 5-HT4 agonist activity (5-HT4 receptor subtype): correlate with agonist activity at a novel 5-HT4 receptor subtype
receptor mediating the peristaltic reflex (5-HT4 receptors): mediated through agonism at 5-HT4 receptors

Reference: patent US5643917A, “4-aminomethyl-1-azaadamantane derived benzamides” (priority 1995, dated 1997)
